Drawing on US12065445B2, “CDK2 inhibitors and methods of using the same” (Cedilla Therapeutics, Inc., priority 2021, dated 2024), this text covers IC50 for 45 compounds.

Structures are written as SMILES. Some results are limits rather than exact numbers.

The first assay has as its system Kuramochi cells. The experiment in a line: BrdU Cell Proliferation Assay. Type of assay: cell-based. Conditions: read-out: BrdU - KURAMOCHI.1: IC50. The method, boiled down: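 Kuramochi cells were seeded at 2,000 cells/well, adhered overnight, then treated with a 10-point, 3-fold compound dilution series for 4 days. Proliferation was measured by a 1-hour BrdU pulse, anti-BrdU peroxidase colorimetric ELISA and 450 nm absorbance. Values were background-subtracted and normalized to DMSO wells.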
As for `CNC(=O)[C@@H](NC(=O)[C@@H]1CN(C(=O)c2nccs2)CC12CN(C(=O)[C@H]1CC1(C)C)C2)[C@@H](C)OCC1CCCCC1` [I-169], the IC50 was above 10 µM. As for `CNC(=O)[C@@H](NC(=O)[C@@H]1CN(C(=O)c2cnn(CC3CC3)c2)CC12CN(C(=O)CC1CC1)C2)[C@@H](C)OCc1ccccc1` [I-53A], the IC50 is above 10 µM. As for `CNC(=O)[C@@H](NC(=O)[C@H]1CN(Cc2cnn(Cc3ccccc3)c2)CC12CN(C(=O)[C@H]1CC1(C)C)C2)[C@@H](C)OCc1ccccc1` [I-16B], the IC50 was above 10 µM. The same measure, in the same setting: next, `CNC(=O)[C@@H](NC(=O)[C@H]1CN(Cc2n[nH]c3ccccc23)CC12CN(C(=O)[C@H]1CC1(C)C)C2)[C@@H](C)OCc1ccccc1` [I-143]: above 10 µM; `C[C@@H](NC(=O)[C@@H]1CN(C(=O)c2cnn(Cc3ccccc3)c2)CC12CN(C(=O)[C@H]1CC1(C)C)C2)c1cccc(F)c1` [I-128A]: above 10 µM; `CC1(C)C[C@@H]1C(=O)N1CC2(CN(C(=O)c3cnn(Cc4ccccc4)c3)C[C@H]2C(=O)N[C@H]2CCc3cc(Cl)ccc32)C1` [I-120A]: above 10 µM. Regarding `CNC(=O)[C@@H](NC(=O)[C@@H]1CN(C(=O)C2CCOCC2)CC12CN(C(=O)[C@H]1CC1(C)C)C2)[C@@H](C)OCc1ccccc1` [I-38A], the IC50 was above 10 µM.

With `C[C@@H](OCC1CCCCC1)[C@H](NC(=O)[C@@H]1CN(C(=O)c2cnn(Cc3ccccc3)c2)CC12CN(C(=O)[C@H]1CC1(C)C)C2)C(=O)N1CCC(CN)CC1` [I-219], the IC50 lay within 0.5 to 5 µM.

Take `CNC(=O)[C@@H](NC(=O)[C@H]1CN(Cc2cn[nH]c2)CC12CN(C(=O)[C@H]1CC1(C)C)C2)[C@@H](C)OCc1ccccc1` [I-50B]: the IC50 was above 10 µM. For `CNC(=O)[C@H](CS(=O)(=O)Cc1ccccc1)NC(=O)[C@@H]1CN(C(=O)c2cnn(Cc3ccccc3)c2)CC12CN(C(=O)[C@H]1CC1(C)C)C2` [I-226], the IC50 was above 10 µM.

For `CCC(CC)C(=O)N1CC2(CN(C(=O)c3cnn(Cc4ccccc4)c3)C[C@H]2C(=O)N[C@H](C(=O)NC)[C@@H](C)OCc2ccccc2)C1` [I-74A], the IC50 is above 10 µM. Take `CNC(=O)[C@@H](NC(=O)[C@@H]1CN(C(=O)c2cnc(C)s2)CC12CN(C(=O)[C@H]1CC1(C)C)C2)[C@@H](C)OCC1CCCCC1` [I-156A]: the IC50 is 5 to 10 µM. Same read-out and setting: to `CNC(=O)[C@@H](NC(=O)[C@H]1CN(C(=O)c2cnc(C(F)(F)F)s2)CC12CN(C(=O)[C@H]1CC1(C)C)C2)[C@@H](C)OCC1CCCCC1` [I-161B] belongs above 10 µM; to `CNC(=O)[C@@H](NC(=O)[C@H]1CN(C(=O)c2cnn(Cc3ccccc3)c2)CC12CN(C(=O)[C@H]1CC1(C)C)C2)[C@@H](C)OCC1(C(F)(F)F)CC1` [I-205B], above 10 µM. Still for that read-out and setting: to `CNC(=O)[C@@H](NC(=O)[C@H]1CN(C(=O)c2ccncc2)CC12CN(C(=O)[C@H]1CC1(C)C)C2)[C@@H](C)OCc1ccccc1` [I-46B] belongs above 10 µM; to `CNC(=O)[C@@H](NC(=O)[C@@H]1CN(C(=O)c2cnc(COC)s2)CC12CN(C(=O)[C@H]1CC1(C)C)C2)[C@@H](C)OCC1CCCCC1` [I-145A], 0.5 to 5 µM. Same read-out and setting: to `CNC(=O)[C@@H](NC(=O)[C@H]1CN(C(=O)c2cnn(Cc3ccccc3)c2)CC12CN(C(=O)C1C(C)(C)C1(C)C)C2)[C@@H](C)OCc1ccccc1` [I-89B] belongs above 10 µM; to `CNC(=O)[C@@H](NC(=O)[C@@H]1CN(C(=O)Nc2cnn(Cc3ccccc3)c2)CC12CN(C(=O)[C@H]1CC1(C)C)C2)[C@@H](C)OCc1ccccc1` [I-48A, (S)—N6-(1-benzyl-1H-pyrazol-4-yl)-N8-((2S,3R)-3-(benzyloxy)-1-(methylamino)-1-oxobutan-2-yl)-2-((S)-2,2-dimethylcyclopropane-1-carbonyl)-2,6-diazaspiro[3.4]octane-6,8-dicarboxamide], above 10 µM; to `CNC(=O)[C@@H](NC(=O)[C@@H]1CN(C(=O)c2cnn(Cc3ccccc3)c2)CC12CN(C(=O)CC1CC1)C2)[C@@H](C)OCC1CCCCC1` [I-56A], above 10 µM.

`CC1(C)C[C@@H]1C(=O)N1CC2(CN(C(=O)c3cnn(Cc4ccccc4)c3)C[C@H]2C(=O)N2CC[C@H](OCC3CCCCC3)C2)C1` [I-256]: the IC50 lay within 5 to 10 µM. Still for that read-out and setting: to `CNC(=O)[C@@H](NC(=O)[C@H]1CN(C(=O)c2cnn(Cc3ccccc3)c2)CC12CN(C(=O)CC(C)C)C2)[C@@H](C)OCc1ccccc1` [I-69B] belongs above 10 µM. Consider `CNC(=O)[C@@H](NC(=O)[C@H]1CN(C(=O)c2cnn(CC3CCOCC3)c2)CC12CN(C(=O)[C@H]1CC1(C)C)C2)[C@@H](C)OCC1CCCCC1` [I-121B], for which the IC50 is above 10 µM.

For the compound `CNC(=O)[C@@H](NC(=O)[C@H]1CN(C(=O)c2cnn(Cc3ccccc3)c2)CC12CN(C(=O)C1(CC3CC3)CC1)C2)[C@@H](C)OCc1ccccc1` [I-116B], the IC50 was above 10 µM. As for `CNC(=O)[C@@H](NC(=O)[C@@H]1CN(C(=O)c2cnc(C(F)(F)F)s2)CC12CN(C(=O)[C@H]1CC1(C)C)C2)[C@@H](C)OCC1CCCCC1` [I-161A], the IC50 was above 10 µM.

With `CC(C)O[C@H]1C[C@H](NC(=O)[C@@H]2CN(C(=O)c3cnn(Cc4ccccc4)c3)CC23CN(C(=O)[C@H]2CC2(C)C)C3)C1` [I-233], the IC50 is above 10 µM.

For the next assay, the system named is Kuramochi cells labeled with mApple-H2B. Briefly: IncuCyte Cell Proliferation Assay. Conditions: 72 h. The format is cell-based. As for the experimental part:
IncuCyte® assay was used to measure the effect of disclosed compounds on cell proliferation. Fluorescent microscopy images of cells were taken immediately after compound treatment and 72 hours later. Image analysis software was used to obtain cell counts as a function of compound concentration. Kuramochi cells labeled with mApple-H2B were seeded on 384-well assay-ready plates. Plates were placed in an IncuCyte® (Sartorius) and scanned at 0 and 72 hours. IncuCyte® software was used to count the number of fluorescent nuclei in each well. The fold change in cell count from 0 to 72 hours in wells treated with increasing compounds concentrations (10 pts, ½ log dilution, 20 μM top concentration) was normalized to DMSO control wells. The normalized cell counts were fit with dose response curves and a […] was calculated.
`C[C@@H](OCC12CCC(CC1)OC2)[C@H](NC(=O)[C@@H]1CN(C(=O)c2cnco2)CC12CN(C(=O)[C@H]1CC1(C)C)C2)C(C)(C)O` [I-450] had an IC50 above 20 µM.

The compound `C[C@@H](OCC12CCC(CC1)OC2)[C@H](NC(=O)[C@@H]1CN(C(=O)c2cncs2)CC12CN(C(=O)[C@H]1CC1(C)C)C2)C(=O)N1CCC[C@H](COC(F)(F)F)C1` [I-460] yielded a half-maximal inhibitory concentration (IC50) of 0.5 to 5 µM. Still for that read-out and setting: to `Cc1nc(C)c(C(=O)N2C[C@@H](C(=O)N[C@H](C(=O)N3CCC(C(F)(F)F)CC3)[C@@H](C)OCC34CCC(CC3)OC4)C3(C2)CN(C(=O)[C@H]2CC2(C)C)C3)s1` [I-456] belongs 0.5 to 5 µM; to `COC1CCN(C(=O)[C@@H](NC(=O)[C@@H]2CN(C(=O)c3sc(C)nc3C)CC23CN(C(=O)[C@H]2CC2(C)C)C3)[C@@H](C)OCC23CCC(CC2)OC3)CC1` [I-451], 5 to 20 µM; to `COC[C@H]1CCCN(C(=O)[C@@H](NC(=O)[C@@H]2CN(C(=O)c3cncs3)CC23CN(C(=O)[C@H]2CC2(C)C)C3)[C@@H](C)OC[C@H]2CC[C@@H](OC)CC2)C1` [I-408], 0.5 to 5 µM.

Turning to `CNC(=O)[C@@H](NC(=O)[C@@H]1CN(C(=O)c2cncs2)CC12CN(CC1COC1)C2)[C@@H](C)OCC12CCC(CC1)OC2` [I-348], the IC50 is above 20 µM. On the same count and under the same terms, to `CC1(C)C[C@@H]1C(=O)N1CC2(CN(C(=O)c3cncs3)C[C@H]2C(=O)NC(c2cccc(C3CCCCC3)n2)C2CCCO2)C1` (stereo partly drawn) [I-495] belongs 0.5 to 5 µM; to `CC(C)(O)C(NC(=O)[C@@H]1CN(C(=O)c2cnco2)CC12CN(C(=O)[C@H]1CC1(C)C)C2)c1cccc(C2CCOCC2)n1` (stereo partly drawn) [I-436], above 20 µM. For `C[C@@H](OCC1CCCCC1)[C@H](NC(=O)[C@@H]1CN(C(=O)c2cnn(Cc3ccccc3)c2)CC12CN(C(=O)[C@H]1CC1(C)C)C2)C(=O)N1CC[C@H]1CN` [I-310], the IC50 was in the range of 5 to 20 µM. On the same count and under the same terms, next, `CC(C)(O)C(NC(=O)[C@@H]1CN(C(=O)c2cncs2)CC12CN(C(=O)[C@H]1CC1(C)C)C2)c1cccc(C2CCOCC2)n1` (stereo partly drawn) [I-423]: above 20 µM; `CC1(C)C[C@@H]1C(=O)N1CC2(CN(C(=O)c3cncs3)C[C@H]2C(=O)NC(c2cccc(C3CCCCC3)n2)C2CCOC2)C1` (stereo partly drawn) [I-493]: 5 to 20 µM; `C[C@@H](OCC1CCOCC1)[C@H](NC(=O)[C@@H]1CN(C(=O)c2cncs2)CC12CN(C(=O)[C@H]1CC1(C)C)C2)C(=O)N1CCC[C@H](COC(F)(F)F)C1` [I-327]: 5 to 20 µM. On to `C[C@@H](OCC1CCC(F)(F)CC1)[C@H](NC(=O)[C@@H]1CN(C(=O)c2cncs2)CC12CN(C(=O)C(C)(C)C1CC1)C2)C(=O)N1CCC(O)CC1` [I-337], for which the IC50 is 0.5 to 5 µM.

In turn, `C[C@@H](OCC12CCC(CC1)OC2)[C@H](NC(=O)[C@@H]1CN(C(=O)c2cncs2)CC12CN(C(=O)[C@H]1CC1(C)C)C2)C(=O)N1CCCC2(COC2)C1` [I-453] came in with an IC50 of 5 to 20 µM. Same read-out and setting: next, `C[C@@H](OCC1CCOCC1)[C@@H](COC1CCC(F)(F)CC1)NC(=O)[C@@H]1CN(C(=O)c2cncs2)CC12CN(C(=O)[C@H]1CC1(C)C)C2` [I-312]: 0.5 to 5 µM; `CNC(=O)[C@@H](NC(=O)[C@@H]1CN(C(=O)c2cncs2)CC12CN(Cc1cnco1)C2)[C@@H](C)OCC12CCC(CC1)OC2` [I-350]: above 20 µM. Take `C[C@@H](OCC1CCOCC1)[C@H](NC(=O)[C@@H]1CN(C(=O)c2cn[nH]c2)CC12CN(C(=O)[C@H]1CC1(C)C)C2)C(=O)N1CCC(F)(F)CC1` [I-297]: the IC50 is above 20 µM.

Compound `CNC(=O)[C@@H](NC(=O)[C@H]1CN(C(=O)c2cnn(Cc3ccccc3)c2)CC12CN(C(=O)OC(C)(C)C)C2)[C@@H](C)OCc1ccccc1` [I-3B] came in with an IC50 above 20 µM.

Take `C[C@@H](OCC1CCC(F)(F)CC1)[C@H](NC(=O)[C@@H]1CN(C(=O)c2cn[nH]c2)CC12CN(C(=O)[C@H]1CC1(C)C)C2)C(=O)N1CCOCC1` [I-301, (S)—N-((2S,3R)-3-((4,4-difluorocyclohexyl)methoxy)-1-morpholino-1-oxobutan-2-yl)-2-((S)-2,2-dimethylcyclopropane-1-carbonyl)-6-(1H-pyrazole-4-carbonyl)-2,6-diazaspiro[3.4]octane-8-carboxamide]: the concentration for half-maximal inhibition (IC50) is above 20 µM.

`C[C@@H](OCC1CCC(F)(F)CC1)[C@H](NC(=O)[C@@H]1CN(C(=O)c2cncs2)CC12CN(C(=O)[C@H]1CC1(C)C)C2)C(=O)N1CCC(CO)CC1` [I-397] returned an IC50 of 0.5 to 5 µM.
